Measured values as given in US12052991B2, “Substituted pyridinyloxybenzenes and salts thereof and use thereof as herbicidal agents” (Bayer Aktiengesellschaft, priority 2018, dated 2024).

Assays:
Assay type in all cases: in vivo
[1] = tested on: Amaranthus retroflexus (AMARE); experiment: Herbicidal pre-emergence action, test C (Table C6); conditions: visual scoring after about 3 weeks, 100% = plants have died, 0% = like control plants
In short: (§1)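 After sowing weed seeds into sandy loam and covering them, the soil surface was treated with aqueous WP or EC preparations containing 0.5% additive, 600 L/ha, at 1280 or 320 g/ha. Scoring was visual, in percent against untreated, at about 3 weeks.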

Poa annua (POAAN) [2] = experiment: Herbicidal pre-emergence action, test C (Table C3); conditions: visual scoring after about 3 weeks, 100% = plants have died, 0% = like control plants
In short: as §1

[3] = tested on: Abutilon theophrasti (ABUTH); experiment: Herbicidal post-emergence action (Table B5); conditions: rated visually after about 3 weeks, 100% = plants have died, 0% = like control plants
In short: (§2)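 Application rates of 1280 or 320 g/ha were tested post-emergence on one-leaf-stage greenhouse plants in sandy loam, using WP or EC formulations with 0.5% additive at 600 L/ha. Activity was rated visually against untreated plants about 3 weeks later.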

[4] = tested on: harmful plants ABUTH, AMARE, ECHCG, LOLRI, MATIN, POAAN, SETVI, STEME, ALOMY, DIGSA, KCHSC and VERPE; experiment: Herbicidal pre-emergence action (test C), summary of Tables C1-C12; conditions: application rate of 1280 or 320 g of active ingredient per hectare; summary in words
In short: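 Visual % damage versus untreated plants (0% = like control, 100% = died) was scored after about 3 weeks in the greenhouse. Before emergence, seeds sown in sandy loam got a soil-surface spray of compound as WP or EC plus 0.5% additive, using 600 L/ha water at rates of 1280 or 320 g/ha.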

Stellaria media (STEME) [5] = experiment: Herbicidal pre-emergence action, test C (Table C8); conditions: visual scoring after about 3 weeks, 100% = plants have died, 0% = like control plants
In short: as §1

[6] = tested on: harmful plants ABUTH, AMARE, ECHCG, LOLRI, MATIN, POAAN, SETVI, STEME, ALOMY, DIGSA, KCHSC and VERPE; experiment: Herbicidal post-emergence action, summary of Tables B1-B12; conditions: application rate of 1280 or 320 g of active ingredient per hectare; summary in words
In short: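 Activity scored by eye roughly 3 weeks post-treatment against untreated plants, from 0% (no effect) to 100% (plants dead). Application rates were 1280 or 320 g/ha, as aqueous WP/EC spray plus 0.5% additive at 600 L/ha, onto one-leaf-stage weeds grown 2–3 weeks in sandy loam.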

[7] = tested on: Echinochloa crus-galli (ECHCG); experiment: Herbicidal pre-emergence action, test C (Table C1); conditions: dosage 1280 g/ha; visual scoring after about 3 weeks; 100% = plants have died, 0% = like control plants
From the text: (§3) Seeds of mono- and dicotyledonous weed plants were placed in plastic pots in sandy loam soil (doubly sown with one species each of mono- or dicotyledonous weed plants per pot) and covered with soil. The compounds of the invention, formulated in the form of wettable powders (WP) or as emulsion concentrates (EC), were then applied onto the surface of the covering soil as aqueous suspension or emulsion with addition of 0.5% additive at a water application rate of 600 liters per hectare (converted). After the treatment, the pots were placed in a greenhouse and kept under good growth conditions for the test plants. After about 3 weeks, the effect of the preparations was scored visually in comparison with untreated controls as percentages. For example, 100% activity=the plants have died, 0% activity=like control plants. Tables C1 to C12 below show the effects of selected compounds of the general formula (I) according to Table 1 on various harmful plants and an application rate corresponding to 1280 or 320 g/ha, which were obtained by the experimental procedure mentioned above.

Setaria viridis (SETVI) = experiment: Herbicidal pre-emergence action, test C (Table C4); conditions: dosage 1280 g/ha; visual scoring after about 3 weeks; 100% = plants have died, 0% = like control plants
In short: as §1

[8] = tested on: Matricaria inodora (MATIN); experiment: Herbicidal pre-emergence action, test C (Table C7); conditions: dosage 1280 g/ha; visual scoring after about 3 weeks; 100% = plants have died, 0% = like control plants
From the text: as §3

[9] = tested on: Amaranthus retroflexus (AMARE); experiment: Herbicidal post-emergence action (Table B6); conditions: visual rating about 3 weeks after treatment, 100% = plants have died, 0% = like control plants
In short: as §2

[10] = tested on: Abutilon theophrasti (ABUTH); experiment: Herbicidal pre-emergence action, test C (Table C5); conditions: visual scoring after about 3 weeks, 100% = plants have died, 0% = like control plants
In short: as §1

Stellaria media (STEME) [11] = experiment: Herbicidal post-emergence action (Table B8); conditions: visual rating about 3 weeks after treatment, 100% = plants have died, 0% = like control plants
In short: as §2

[12] = tested on: Echinochloa crus-galli (ECHCG); experiment: Herbicidal post-emergence action (Table B1); conditions: rated visually after about 3 weeks, 100% = plants have died, 0% = like control plants
Procedure: (§4) Seeds of mono- and dicotyledonous weed plants were placed in plastic pots in sandy loam soil (doubly sown with in each case one species of mono- or dicotyledonous weed plants per pot), covered with soil and cultivated in a greenhouse under controlled growth conditions. 2 to 3 weeks after sowing, the test plants were treated at the one-leaf stage. The compounds of the invention, formulated in the form of wettable powders (WP) or as emulsion concentrates (EC), were applied onto the green parts of the plants as aqueous suspension or emulsion with addition of 0.5% additive at a water application rate of 600 liters per hectare (converted). After the test plants had been kept in the greenhouse under optimum growth conditions for about 3 weeks, the activity of the preparations was rated visually in comparison to untreated controls. For example, 100% activity=the plants have died, 0% activity=like control plants. Tables B1 to B12 below show the effects of selected compounds of the general formula (I) according to Table 1 on various harmful plants and an application rate corresponding to 1280 or 320 g/ha, which were obtained by the experimental procedure mentioned above.

[13] = tested on: Digitaria sanguinalis (DIGSA); experiment: Herbicidal pre-emergence action, test C (Table C10); conditions: dosage 1280 g/ha; visual scoring after about 3 weeks; 100% = plants have died, 0% = like control plants
From the text: as §3

Veronica persica (VERPE) [14] = experiment: Herbicidal pre-emergence action, test C (Table C12); conditions: visual scoring vs untreated controls
In short: as §1

Bassia scoparia (KCHSC) = experiment: Herbicidal post-emergence action (Table B11); conditions: visual rating about 3 weeks after treatment, 100% = plants have died, 0% = like control plants
Procedure: as §4

[15] = tested on: Alopecurus myosuroides (ALOMY); experiment: Herbicidal post-emergence action (Table B9); conditions: rated visually after about 3 weeks, 100% = plants have died, 0% = like control plants
Procedure: as §4

[16] = tested on: Digitaria sanguinalis (DIGSA); experiment: Herbicidal post-emergence action (Table B10); conditions: dosage 1280 g/ha; visual rating about 3 weeks after treatment; 100% = plants have died, 0% = like control plants
Procedure: as §4

[17] = tested on: Alopecurus myosuroides (ALOMY); experiment: Herbicidal pre-emergence action, test C (Table C9); conditions: dosage 1280 g/ha; visual scoring after about 3 weeks; 100% = plants have died, 0% = like control plants
From the text: as §3

Veronica persica (VERPE) [18] = experiment: Herbicidal post-emergence action (Table B12); conditions: visual rating about 3 weeks after treatment, 100% = plants have died, 0% = like control plants
In short: as §2

Poa annua (POAAN) [19] = experiment: Herbicidal post-emergence action (Table B3); conditions: rated visually after about 3 weeks, 100% = plants have died, 0% = like control plants
In short: as §2

SMILES | Pre-emergence action against Amaranthus retroflexus (AMARE) ([1]; dosage 1280 g/ha) | Pre-emergence action against Poa annua (POAAN) (Poa annua (POAAN) [2]; dosage 1280 g/ha) | Post-emergence action against Abutilon theophrasti (ABUTH) ([3]; 1280 g/ha) | herbicidal activity against the harmful plants of Tables C1-C12 in pre-emergence treatment [4] | Pre-emergence action against Stellaria media (STEME) (Stellaria media (STEME) [5]; dosage 1280 g/ha) | herbicidal activity against the harmful plants of Tables B1-B12 in post-emergence treatment [6] | Pre-emergence action against Setaria viridis (SETVI) (Setaria viridis (SETVI)) | Pre-emergence action against Matricaria inodora (MATIN) [8] | Post-emergence action against Amaranthus retroflexus (AMARE) ([9]; dosage 1280 g/ha) | Pre-emergence action against Abutilon theophrasti (ABUTH) ([10]; dosage 1280 g/ha) | Post-emergence action against Stellaria media (STEME) (Stellaria media (STEME) [11]; dosage 1280 g/ha) | Pre-emergence action against Digitaria sanguinalis (DIGSA) [13] | Pre-emergence action against Veronica persica (VERPE) (Veronica persica (VERPE) [14]; dosage 1280 g/ha) | Pre-emergence action against Stellaria media (STEME) (Stellaria media (STEME) [5]; dosage 320 g/ha) | Post-emergence action against Digitaria sanguinalis (DIGSA) [16] | Pre-emergence action against Alopecurus myosuroides (ALOMY) [17] | Post-emergence action against Veronica persica (VERPE) (Veronica persica (VERPE) [18]; dosage 1280 g/ha) | Post-emergence action against Poa annua (POAAN) (Poa annua (POAAN) [19]; 320 g/ha) | Post-emergence action against Poa annua (POAAN) (Poa annua (POAAN) [19]; 1280 g/ha) | Post-emergence action against Veronica persica (VERPE) (Veronica persica (VERPE) [18]; dosage 320 g/ha) | also measured
N#Cc1ccc(Oc2cccc(F)c2-c2cc(C(F)F)on2)nc1 [Example 1-11] | 100% | 90% | 100% | very good herbicidal activity | 100% | very good herbicidal activity | 90% | 90% | 100% | 100% |  |  |  |  |  |  |  |  |  |  | Pre-emergence action against Echinochloa crus-galli (ECHCG) [7]: 90%; Post-emergence action against Amaranthus retroflexus (AMARE) ([9]; dosage 320 g/ha): 100%
Cc1ccc(-c2cc(C(F)F)no2)c(Oc2ccc(Cl)cn2)c1 [Example 1-26] |  | 100% | 100% | very good herbicidal activity | 100% | very good herbicidal activity | 90% | 100% | 100% | 90% | 100% | 90% | 90% | 100% | 90% | 90% | 100% | 100% | 100% |  | Post-emergence action against Echinochloa crus-galli (ECHCG) ([12]; 320 g/ha): 100%; Post-emergence action against Echinochloa crus-galli (ECHCG) ([12]; 1280 g/ha): 100%; Pre-emergence action against Poa annua (POAAN) (Poa annua (POAAN) [2]; dosage 320 g/ha): 90%; Post-emergence action against Abutilon theophrasti (ABUTH) ([3]; 320 g/ha): 90%; Post-emergence action against Bassia scoparia (KCHSC) (Bassia scoparia (KCHSC); dosage 320 g/ha): 90%; Post-emergence action against Bassia scoparia (KCHSC) (Bassia scoparia (KCHSC); dosage 1280 g/ha): 100%; Post-emergence action against Alopecurus myosuroides (ALOMY) ([15]; 320 g/ha): 100%; Post-emergence action against Alopecurus myosuroides (ALOMY) ([15]; 1280 g/ha): 100%
Cc1ccnc(-c2ccccc2Oc2ccc(Cl)cn2)c1 [Example 1-81] | 100% | 100% | 90% | very good herbicidal activity | 100% | very good herbicidal activity |  | 90% | 100% | 100% | 100% | 100% | 100% |  |  | 90% | 100% |  | 90% | 100% | Pre-emergence action against Abutilon theophrasti (ABUTH) ([10]; dosage 320 g/ha): 100%
FC(F)c1cc(-c2c(Oc3ccc(Cl)cn3)cccc2C2CC2)on1 [Example 1-77] | 100% | 100% | 90% | very good herbicidal activity | 100% | very good herbicidal activity | 100% |  | 100% |  | 100% | 100% | 100% | 100% | 100% | 100% | 100% | 100% | 100% | 100% | Post-emergence action against Stellaria media (STEME) (Stellaria media (STEME) [11]; dosage 320 g/ha): 100%; Pre-emergence action against Veronica persica (VERPE) (Veronica persica (VERPE) [14]; dosage 320 g/ha): 90%; Pre-emergence action against Amaranthus retroflexus (AMARE) ([1]; dosage 320 g/ha): 90%
